Assay [1] has as its system caecum content metagenome. Briefly: Broiler feeding trial, cecal metagenomic analysis (KEGG and SEED functional genes). It is filed as in vivo, chickens. Conditions: treated groups (B and C) vs control group (A).
Procedure: The DNA are being extracted from each sample of caecum content using a bead-beating procedure. Briefly, 0.25 g of cecal content are suspended in 1 ml lysis buffer (500 mM NaCl, 50 mM Tris-Cl, pH 8.0, 50 mM EDTA, 4% SDS) with MagNA Lyser Green Beads (Roche, Milan, Italy) and homogenized on the MagNA Lyser (Roche) for 25 sec at 6500 rpm. The samples are then heated at 70° C. for 15 min, followed by centrifugation to separate the DNA from the bacterial cellular debris. This process is repeated with a second 300 μl aliquot of lysis buffer. The samples are then subjected to 10 M v/v ammonium acetate (Sigma, Milan, Italy) precipitation, followed by isopropanol (Sigma) precipitation and a 70% ethanol (Carlo Erba, Milan, Italy) wash and re-suspended in 100 ul 1× Tris-EDTA (Sigma). The samples are then treated with DNase-free RNase (Roche) and incubated overnight at 4° C., before being processed through the QIAmp® DNA Stool Mini Kit (Qiagen, Milan, Italy) according to manufacturer's directions with some modifications. Samples are measured on a BioSpectrometer® (Eppendorf, Milan, Italy) to assess DNA quantity and quality. […]
Filtering and trimming of raw reads were performed using MGRast (MR) (mgrast.org) (Keegan et al., 2016) bioinformatics pipelines. […]
The subject of another assay is litter microbiota. Briefly: Broiler feeding trial, litter microbiota. To be noted: groups A, B, C. It is filed as in vivo, chickens. From the text:
(§1) Each group was sampled three times (i.e., S1=14 days, S2=28 days, S3=38/42 days) in specific days corresponding to when the feed will be changed along the feeding program.
(§2) During each sampling (i.e., S1, S2 and S3) a total of 40 birds/group were humanely euthanized and 9 litter samples will be collected (i.e., 3 samples/group).
(§3) 16S rRNA gene PCR amplification and sequencing. The V3-V4 hypervariable region of the 16S rRNA gene was PCR-amplified using 341F and 785R primers with Illumina overhang adaptors sequences. Amplicons purification was performed by using AMPure XP Beads magnetic beads (Beckman Coulter, Brea, CA). For the indexed library preparation, the Nextera XT DNA Library Prep Kit (Illumina, San Diego, CA) was used. A further magnetic beads purification step was performed and libraries quantified using the Qubit 3.0 fluorimeter (Invitrogen), then pooled at 4 nM. The library pool was denatured with NaOH 0.2 N and diluted to 6 μM. […]
(§4) Bioinformatics and statistics. […] After chimera sequences removal, high-quality reads were filtered and binned into high-resolution operational taxonomic units (OTUs) according to the taxonomic threshold of 99% through an open-reference strategy performed with dada2 (Callahan et al, 2016). […] Alpha diversity was measured using Faith PD index and number of observed OTUs. […]

The subject of the next assay is caecal contents. Briefly: In vitro gas production with caecal contents. It is filed as cell-based, pigs.
In the next assay the test system is ileal microbiota. Briefly: Broiler feeding trial, ileal microbiota 16S rRNA sequencing. The assay is classed as in vivo, chickens. To be noted: Groups B and C; T2 and T3, significant for T2 only, P<0.0001.
Excerpt: as §1, §2, §3, §4

Another assay has as its system Bifidobacterium. In words: Microbiome composition by shotgun sequencing: Bifidobacterium (first set). It is filed as cell-based, human. Conditions: after 24 h fermentation, vs corresponding control.
In assay [2] the test system is Co-cultures of Caco-2 and HT29-MTX-E12 cells. In words: Barrier integrity (TEER), healthy gut model. The assay is classed as cell-based. To be noted: 48 h minus 0 h fermentation samples, vs corresponding control.
Procedure: Co-cultures of Caco-2 and HT29-MTX-E12 cells were used to assess the protective effect of the supernatants before (0 h) and after fermentation (48 h) for both sets of in vitro experiments above.
CaCo-2 ECACC 86010202 and HT29-MTX-E12 ECACC 12040401 cells (both from European Collection of Cell Cultures, Salisbury, UK) were both cultured at 37° C., in atmosphere of 5% CO2 in DMEM medium supplemented with 4.5 g/L D-Glucose, 4 mM L-Glutamine, 1 mM Sodium Pyruvate, 1% MEM Non-Essential Amino Acids, 50 μg/mL Gentamicin (Life Technologies Europe B.V., Zug, Switzerland) and 10% heat-inactivated FBS (Sigma-Aldrich, Buchs, Switzerland). Sub-confluent cells were trypsinized using 0.25% Trypsin/EDTA (Life Technologies Europe B.V., Zug, Switzerland) and passaged at a ratio of 1:5-1:10 twice a week. Cells between passages 55 and 85 were used for this study.
Cells were seeded at a density of 20000 cells/well in a 7:3 ratio (Caco-2:HT29-MTX-E12) in Corning HTS Transwell-24 system PET membranes, 0.4 μM pore size, cell growth area 0.33 cm2/well (Corning BV, Amsterdam, Netherlands) and cultured as described above. Media was changed every second to third day.
For both sets of in vitro experiments, after cells being 13 days in culture, initial transepithelial electrical resistance (TEER) readings were obtained using an EVOM2 Voltohmmeter (EVOM, World Precision Instruments, Berlin) equipped with STX100 Electrodes. TEER values correlate with the tightness of the confluent monolayer (Srinivasan et al. 2015).
The background TEER (insert) was subtracted from total TEER (cell monolayer plus insert) to yield the monolayer resistance and then normalized to surface area by multiplying with the area of the insert (Srinivasan et al. 2015). The integrity of the monolayer was determined at basal level by measuring TEER. A TEER of 300 Ωcm2 was regarded as a tight monolayer (see results section). Afterwards, the cells were treated with sterile filtered fermentation supernatants or fermentation medium as a control (diluted 1:20 in growth media). After 24 h incubation the resistance across each cell monolayer was measured again and the percentage change in TEER compared to initial TEER for each insert was calculated to represent a healthy gut model. All TEER measurements were done by placing the plates containing the inserts on a 37° C. warming plate and were performed in the same duration.
In assay [3] the test system is fecal suspension from the selected donor. In words: Gas production in closed colon incubations (first set). The assay is classed as cell-based, human. To be noted: after 48 h fermentation, vs corresponding control. On the procedure:
The colon incubations were performed in closed incubation systems. This allowed us to evaluate the accumulation of gasses in the headspace, which can be measured with a pressure meter. Gas production is a measure of microbial activity, and thus of the speed of fermentation of the potentially prebiotic substrates. It can be used as an indication for bloating and digestive wellbeing upon prebiotic consumption.
Since ethanol is known to have antimicrobial effects, two blanks for each type of stock solution were included. As a source of the microbial community, a freshly prepared fecal suspension from the selected donor was added to the reactors. […] All tests, except the blanks, were performed in single repetition, resulting in 40 independent incubations, as specified in Table 1. Incubation conditions of the pre-screening experiment and the final experiment were 48 h at 37° C., under shaking (90 rpm) and anaerobic conditions. DNA were extracted from effluent samples collected from each fermentation flask before (0 h fermentation) and after fermentation (24 h fermentation) and use for microbiome composition analysis by Shotgun sequencing. Effluent samples were collected from each fermentation flask before (0 h fermentation) and after fermentation (48 h fermentation), sterilized by filtering through 0.22 μm filters and used for short chain fatty acids (SCFA), quantification of immunological biomarkers and in vitro analysis in cell culture systems.
For both sets of in vitro experiments, colon incubations were performed in closed incubation systems as described above. This allowed to evaluate the accumulation of gasses in the headspace, which can be measured with a pressure meter. Gas production is a measure of microbial activity, and thus of the speed of fermentation of the potentially prebiotic substrates

Assay [4] concerns genes involved in Acetyl-CoA fermentation to Butyrate pathway. In words: Shotgun sequencing functional analysis: butyrate pathway genes (first set). It is filed as cell-based, human. To be noted: 0.2× dose; after 24 h fermentation; vs corresponding control.
The test system of assay [5] is fecal microbial community. In words: Microbiome composition by shotgun sequencing: alpha diversity (first set). The assay is classed as cell-based, human. Conditions: after 24 h fermentation, vs corresponding control.

Procedure for caecal contents: After 30 days of adaptation, animals were slaughtered. […] Regarding the caecal contents, one part was immediately sampled, dispensed in 20 ml tubes, frozen in liquid nitrogen and stored at −80° C. to use as frozen inoculum for in vitro gas production studies. The other part was directly used as fresh fermentation inoculum.
The microbial fermentation pattern of caecal contents was studied in vitro by the gas production technique (Theodorou et al., 1994. Anim Feed Sci Technol 48:185-1-97). […] Firstly, triplicate glass bottles (110 mL total volume) for each treatment were filled with 56 mL incubation solution. Caecal contents of each of the 3 pigs for each treatment were mixed 2:1 with the incubation solution under CO2 atmosphere and homogenized for few minutes with waring blender (ceacal contents implies a 0.20 of total incubation solution). Then, 24 mL of the mixture were added to each bottle to complete the 80 mL total liquid volume. In addition, triplicate bottles without substrate were also included as blanks. Bottles were sealed under a CO2 stream and incubated at 39° C. for 12 h. Pressure was recorded every two hours throughout the incubation period, by means of an HD 2124.02 manometer fitted with a TP804 pressure gauge (Delta Ohm, Caselle di Selvazzano, Italy). Readings were converted into volume by a pre-established linear regression equation between the pressure recorded in the same bottles under the same conditions and known air volumes (n=103; R2=0.996). The gas volume recorded for each incubation time was expressed per unit of incubated organic matter (OM). Methane (CH4) concentration was measured on every 6 h interval. At 6 and 12 h incubation samples were collected and either acidified 1:1 with 0.1N HCl or added to 0.5 ml of a deproteinizing mixture of 0.5 M PO4H3 with 2 mg/ml 4-methyl valeric acid, that were stored at −20° C. for determination of ammonia and volatile fatty acid (VFA) concentration, respectively. Note that the procedure of the in vitro gas production was the same for both fresh inocula and frozen inocula, with the only difference that the frozen samples of caecal contents were previously maintained at 38° C. for 5 min for thawing.
For gas production, results were analyzed for each incubation time as a split-plot design, considering the donor pig as a block, the contents (fresh vs. frozen) as the main plot and the treatment as the subplot. […] Differences were considered significant when P<0.05, and a trend for significance was considered when 0.05 ? P<0.10 and, when significant, differences were compared by the Tukey t test at P<0.05.

As for `Cc1cc2nc3c(=O)[nH]c(=O)nc-3n(C[C@H](O)[C@H](O)[C@H](O)CO)c2cc1C` [Vitamin B2, riboflavin], the “PCA of functional features (6361 features, 63 samples)” value in assay [1] is recorded as “clear visible separation”. For the same compound, in the assay on litter microbiota, the “litter microbiome bacterial composition and species richness/diversity” value is on record as “no significant differences”. In addition, in the assay on caecal contents (6 and 12 h incubation, ranking, no significant differences), the “CH4 production as volume per unit of incubation substrate” value is recorded as “lowest accumulate CH4”. Further, in the assay with caecal contents (among treatments), the “concentration of total VFA, molar proportions of VFA, ammonia concentration” value was “No differences were recorded”. The “CH4 proportion of total gas” value in the assay with caecal contents (up to 12 h incubation, numerical, no significant differences (P>0.05)) was “the lowest”. Moreover, in the assay with caecal contents (vs control, 4, 10 and 12 h incubation, P<0.05), the volume of gas result is reported as “higher”. For the same compound, the “ileal species richness (observed OTUs)” value in the assay on ileal microbiota is “increase in terms of species richness”.

On to Vitamin E, for which the Bifidobacterium relative abundance result in the assay on Bifidobacterium (0.2× dose), in the assay with Bifidobacterium (1× dose) and with Bifidobacterium (5× dose) was “increase Bifidobacterium relative abundance” each time. In addition, the “TEER, healthy gut cellular model” value in [2] (1× dose) and in assay [2] (5× dose) was “increase TEER” throughout. The gas production entry in assay [3] (1× dose) and in assay [3] (5× dose) was “reduced gas production” in each case. In addition, in assay [4], the “relative abundance of genes involved in Acetyl-CoA fermentation to Butyrate pathway” value is recorded as “increase relative abundance”. For the same compound, the “microbiome alpha diversity (Shannon diversity index)” value in [5] (0.2× dose), in assay [5] (1× dose) and in assay [5] (5× dose) was “increase microbiome diversity” throughout.
